In article PMC8119466, “A screen of FDA-approved drugs identifies inhibitors of protein tyrosine phosphatase 4A3 (PTP4A3 or PRL-3)” (Scientific Reports, 2021):
Structures can show the parent of a compound that is named as a salt. Where two headings read alike, the source gives them in different places.

Assays:
Assay type in all cases: biochemical
recombinant PRL-2 = target: T1, recombinant PRL-2 (Homo sapiens, UniProt Q12974); test: In vitro phosphatase assay (DiFMUP hydrolysis), PRL-2;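 note: PRL-2 activity read as DiFMUP hydrolysis after 20 min at room temperature with drug, enzyme first pre-reduced at 4 °C for 20 min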
T1 construct: 6xHis (N, cleaved yes); made in house; host or cells: E. coli One Shot BL21 Star
T1 sequence (Q12974 1-167): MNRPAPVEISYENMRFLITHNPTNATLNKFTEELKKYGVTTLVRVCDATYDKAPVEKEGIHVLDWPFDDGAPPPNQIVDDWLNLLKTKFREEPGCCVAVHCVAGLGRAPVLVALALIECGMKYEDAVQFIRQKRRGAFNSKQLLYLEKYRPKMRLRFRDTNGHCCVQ

recombinant PRL-3 = target: T2, recombinant PRL-3 (Homo sapiens, UniProt O75365); test: In vitro phosphatase assay (DiFMUP hydrolysis), PRL-3; note: test concentration or dose not given here
T2 construct: 6xHis (N, cleaved yes); made in house; host or cells: E. coli One Shot BL21 Star

recombinant PRL-1 = target: T3, recombinant PRL-1 (Homo sapiens, UniProt Q93096); test: In vitro phosphatase assay (DiFMUP hydrolysis), PRL-1; note: test concentration or dose not given here
T3 construct: 6xHis (N, cleaved yes); made in house; host or cells: E. coli One Shot BL21 Star
T3 sequence (Q93096 1-173): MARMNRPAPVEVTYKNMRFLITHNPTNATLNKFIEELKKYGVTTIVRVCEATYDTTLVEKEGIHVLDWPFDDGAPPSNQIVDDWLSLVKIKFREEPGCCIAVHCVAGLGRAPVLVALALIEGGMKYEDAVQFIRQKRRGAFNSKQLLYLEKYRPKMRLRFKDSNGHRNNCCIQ

[1] = FDA-approved drug screen, compared to DMSO

T2 sequence (O75365 whole entry): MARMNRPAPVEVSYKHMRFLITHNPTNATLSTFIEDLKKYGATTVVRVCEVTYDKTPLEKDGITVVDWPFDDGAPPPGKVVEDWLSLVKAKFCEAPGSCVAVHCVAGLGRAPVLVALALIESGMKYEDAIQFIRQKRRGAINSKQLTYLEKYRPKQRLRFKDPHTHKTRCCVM

Row | Compound | % Phosphatase Activity (compared to DMSO) PRL-2 (recombinant PRL-2; [1]) [%] | % Phosphatase Activity (compared to DMSO) PRL-3 (recombinant PRL-3; [1]) [%] | % Phosphatase Activity (compared to DMSO) PRL-1 (recombinant PRL-1; [1]) [%] | % Phosphatase Activity (compared to DMSO) PRL-2 (recombinant PRL-2) [%] | % Phosphatase Activity (compared to DMSO) PRL-3 (recombinant PRL-3) [%] | % Phosphatase Activity (compared to DMSO) PRL-1 (recombinant PRL-1) [%]
1 | CC(=O)OCC(=O)[C@@]1(O)CC[C@H]2[C@@H]3CCC4=CC(=O)C=C[C@]4(C)[C@H]3[C@@H](O)C[C@@]21C [Prednisolone Acetate] | 102 | 80 | 105 | – | – | –
2 | C[C@]12C=CC(=O)C=C1CC[C@@H]1[C@@H]2[C@@H](O)C[C@@]2(C)[C@H]1CC[C@]2(O)C(=O)CO [Prednisolone] | 99 | 103 | 89 | – | – | –
3 | C[C@]12C=CC(=O)C=C1CC[C@@H]1[C@@H]2C(=O)C[C@@]2(C)[C@H]1CC[C@]2(O)C(=O)CO [Prednisone] | 91 | 80 | 98 | – | – | –
4 | CC(=O)[C@H]1CC[C@H]2[C@@H]3CC=C4C[C@@H](O)CC[C@]4(C)[C@H]3CC[C@]12C [Pregnenolone] | 101 | 88 | 89 | – | – | –
5 | CCCNC(C)C(=O)Nc1ccccc1C (stereo not drawn) [Prilocaine] | 107 | 78 | 97 | – | – | –
6 | CCC1(c2ccccc2)C(=O)NCNC1=O [Primidone] | 93 | 79 | 84 | – | – | –
7 | CCCC(C(=O)OCCN(CC)CC)(c1ccccc1)c1ccccc1 [Proadifen HCl] | 106 | 105 | 94 | – | – | –
8 | CCCN(CCC)S(=O)(=O)c1ccc(C(=O)O)cc1 [Probenecid] | 114 | 84 | 110 | – | – | –
9 | CC(C)(Sc1cc(C(C)(C)C)c(O)c(C(C)(C)C)c1)Sc1cc(C(C)(C)C)c(O)c(C(C)(C)C)c1 [Probucol] | 122 | 78 | 100 | – | – | –
10 | CCN(CC)CCNC(=O)c1ccc(N)cc1 [Procainamide HCl] | 127 | 75 | 94 | – | – | –
11 | CCN(CC)CCOC(=O)c1ccc(N)cc1 [Procaine HCl] | 112 | 92 | 108 | – | – | –
12 | CCN(CC)CCOC(=O)c1ccc(N)cc1 [Procaine] | 94 | 80 | 102 | – | – | –
13 | CNNCc1ccc(C(=O)NC(C)C)cc1 [Procarbazine HCl] | 90 | 87 | 103 | – | – | –
14 | CN1CCN(CCCN2c3ccccc3Sc3ccc(Cl)cc32)CC1.O=C(O)/C=C\C(=O)O.O=C(O)/C=C\C(=O)O [Prochlorperazine dimaleate salt] | 108 | 91 | 93 | – | – | –
15 | O=C(O)CCc1nc2ccccc2[nH]1 [Procodazole] | 85 | 86 | 98 | – | – | –
16 | OC(CCN1CCCC1)(c1ccccc1)C1CCCCC1 (stereo not drawn) [Procyclidine HCl] | 118 | 95 | 112 | – | – | –
17 | Nc1ccc2cc3ccc(N)cc3nc2c1 [Proflavine Hemisulfate] | 61 | 100 | 81 | – | – | –
18 | CC(=O)[C@H]1CC[C@H]2[C@@H]3CCC4=CC(=O)CC[C@]4(C)[C@H]3CC[C@]12C [Progesterone] | 96 | 76 | 90 | – | – | –
19 | CC(CN1c2ccccc2Sc2ccccc21)N(C)C.Cl (stereo not drawn) [Promethazine HCl] | 106 | 77 | 99 | – | – | –
20 | CCCNCC(O)COc1ccccc1C(=O)CCc1ccccc1 (stereo not drawn) [Propafenone HCl] | 114 | 79 | 98 | – | – | –
21 | CCCOc1ccc(C(=O)OCCN(CC)CC)cc1N [Proparacaine HCl] | 108 | 96 | 78 | – | – | –

Row | Compound | % Phosphatase Activity (compared to DMSO) PRL-2 (recombinant PRL-2; [1]) [%] | % Phosphatase Activity (compared to DMSO) PRL-3 (recombinant PRL-3; [1]) [%] | % Phosphatase Activity (compared to DMSO) PRL-1 (recombinant PRL-1; [1]) [%] | % Phosphatase Activity (compared to DMSO) PRL-2 (recombinant PRL-2) [%] | % Phosphatase Activity (compared to DMSO) PRL-3 (recombinant PRL-3) [%] | % Phosphatase Activity (compared to DMSO) PRL-1 (recombinant PRL-1) [%]
22 | CC(C)NCC(O)COc1cccc2ccccc12.Cl (stereo not drawn) [Propranolol HCl] | 128 | 70 | 95 | – | – | –
23 | CCCc1cc(=O)[nH]c(=S)[nH]1 [Propylthiouracil] | – | – | – | 93 | 91 | 94
24 | CCCc1cc(C(N)=S)ccn1 [Protionamide] | 101 | 97 | 100 | – | – | –
25 | NC(=O)[C@@H]1CCCN1C(=O)[C@H](Cc1cnc[nH]1)NC(=O)[C@@H]1CCC(=O)N1 [Protirelin] | 91 | 106 | 97 | – | – | –
26 | COCCCN1CCC(NC(=O)c2cc(Cl)c(N)c3c2OCC3)CC1.O=C(O)CCC(=O)O [Prucalopride Succinat] | 77 | 85 | 76 | – | – | –
27 | COCCCN1CCC(NC(=O)c2cc(Cl)c(N)c3c2OCC3)CC1 [Prucalopride] | 113 | 85 | 97 | – | – | –
28 | COc1ccc(C[C@H](N)C(=O)N[C@H]2[C@@H](O)[C@H](n3cnc4c(N(C)C)ncnc43)O[C@@H]2CO)cc1.Cl.Cl [Puromycin 2HCl] | 101 | 113 | 106 | – | – | –
29 | NC(=O)c1cnccn1 [Pyrazinamide] | 93 | 95 | 85 | – | – | –
30 | CN(C)C(=O)Oc1ccc[n+](C)c1 [Pyridostigmine Bromide] | 109 | 77 | 106 | – | – | –
31 | Cc1ncc(CO)c(CO)c1O [Pyridoxine HCl] | 102 | 91 | 100 | – | – | –
32 | COc1ccc(CN(CCN(C)C)c2ccccn2)cc1 [Pyrilamine Maleate] | 111 | 98 | 94 | – | – | –
33 | OCCOCCN1CCN(C2=Nc3ccccc3Sc3ccccc32)CC1 [Quetiapine Fumarate] | – | – | – | 87 | 93 | 80
34 | CCOC(=O)[C@H](CCc1ccccc1)N[C@@H](C)C(=O)N1Cc2ccccc2C[C@H]1C(=O)O [Quinapril HCl] | 106 | 80 | 92 | – | – | –
35 | Cn1cc(CNCC2CCN(c3ncc(C(=O)NO)cn3)CC2)c2ccccc21 [Quisinostat (JNJ-26481585)] | 109 | 92 | 121 | – | – | –
36 | CC(C)(C)c1cc(NC(=O)Nc2ccc(-c3cn4c(n3)sc3cc(OCCN5CCOCC5)ccc34)cc2)no1 [Quizartinib (AC220)] | 114 | 97 | 112 | – | – | –
37 | COc1cc(Nc2ncc(F)c(Nc3ccc4c(n3)N(COP(=O)([O-])[O-])C(=O)C(C)(C)O4)n2)cc(OC)c1OC.[Na+].[Na+] [R788 (Fostamatinib) Disodium] | 119 | 88 | 90 | – | – | –
38 | CC(=O)SCC(Cc1ccccc1)C(=O)NCC(=O)OCc1ccccc1 (stereo not drawn) [Racecadotril] | 99 | 76 | 95 | – | – | –
39 | Cc1cn(-c2cc(NC(=O)c3ccc(C)c(Nc4nccc(-c5cnccn5)n4)c3)cc(C(F)(F)F)c2)cn1 [Radotinib] | 83 | 89 | 96 | – | – | –
40 | O=C(c1ccc(OCCN2CCCCC2)cc1)c1c(-c2ccc(O)cc2)sc2cc(O)ccc12 [Raloxifene HCl] | 96 | 74 | 95 | – | – | –
41 | Cc1nnc(C(=O)NC(C)(C)c2nc(C(=O)NCc3ccc(F)cc3)c(O)c(=O)n2C)o1 [Raltegravir (MK-0518)] | 105 | 90 | 96 | – | – | –
